Molecular target: T1, hMAGL (Homo sapiens, UniProt Q99685)
T1 sequence (Q99685 1-303): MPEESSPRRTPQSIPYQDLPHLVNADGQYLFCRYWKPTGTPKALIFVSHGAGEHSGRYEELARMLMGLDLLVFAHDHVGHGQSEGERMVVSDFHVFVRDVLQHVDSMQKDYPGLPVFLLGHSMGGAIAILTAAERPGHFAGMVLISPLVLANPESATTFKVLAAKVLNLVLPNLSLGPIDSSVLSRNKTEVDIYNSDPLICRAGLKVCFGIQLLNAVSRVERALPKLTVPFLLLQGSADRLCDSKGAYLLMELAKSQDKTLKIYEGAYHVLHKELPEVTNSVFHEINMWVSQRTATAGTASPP
Experiment: 2-AG assay: MAGL inhibition, hydrolysis of 2-arachidonoylglycerol to arachidonic acid followed by mass spectrometry
Format: biochemical
Outline: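 Read-out is LC-MS/MS of arachidonic acid released from 2-arachidonoylglycerol (8 μM final), normalised to d8-arachidonic acid internal standard after acetonitrile quench. Enzyme […] and compound were pre-mixed 15 min, then reacted 30 min, both at RT, in Tris/EDTA buffer with 0.01% Tween-20 and 2.5% DMSO.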

**Q.** How did the IC50 turn out when `O=C(N1CC2(CC(Cc3cc(C(F)F)n[nH]3)C2)C1)N1CC2(CC(n3cnc(C(F)(F)F)n3)C2)C1` [Example 295, [6-[[3-(difluoromethyl)-1H-pyrazol-5-yl]methyl]-2-azaspiro[3.3]heptan-2-yl]-[6-[3-(trifluoromethyl)-1,2,4-triazol-1-yl]-2-azaspiro[3.3]heptan-2-yl]methanone] was run?
**A.** The IC50 was 1.11 nM.

**Q.** `O=C(N1CC2(CC(Cc3nc(C(F)(F)F)c[nH]3)C2)C1)N1CC2(CC(n3cnc(C(F)(F)F)n3)C2)C1` [Example 348, [6-[[4-(trifluoromethyl)-1H-imidazol-2-yl]methyl]-2-azaspiro[3.3]heptan-2-yl]-[6-[3-(trifluoromethyl)-1,2,4-triazol-1-yl]-2-azaspiro[3.3]heptan-2-yl]methanone] was tested. Which IC50 did it give?
**A.** The IC50 was 1.51 nM.

**Q.** Which IC50 does the source give for `O=C(N1CC2(CC(Oc3nc(C(F)(F)F)cs3)C2)C1)N1CC2(CC(n3cnc(C4(O)CC4)n3)C2)C1` [Example 13, [6-[3-(1-hydroxycyclopropyl)-1,2,4-triazol-1-yl]-2-azaspiro[3.3]heptan-2-yl]-[6-[4-(trifluoromethyl)thiazol-2-yl]oxy-2-azaspiro[3.3]heptan-2-yl]methanone] here?
**A.** The IC50 was 14.9 nM.

**Q.** How did the IC50 turn out when `O=C(N1CC2(CC(n3cnc(C4CC4)n3)C2)C1)N1CC2(CN(Cc3cnn(C(F)F)c3)C2)C1` [Example 263, [6-(3-cyclopropyl-1,2,4-triazol-1-yl)-2-azaspiro[3.3]heptan-2-yl]-[6-[[1-(difluoromethyl)pyrazol-4-yl]methyl]-2,6-diazaspiro[3.3]heptan-2-yl]methanone] was run?
**A.** Its IC50 is 102 nM.

**Q.** With `Cn1ncc(P(C)(C)=O)c1CN1CC2(C1)CN(C(=O)N1CC3(CC(n4cnc(C5CC5)n4)C3)C1)C2` [Example 228, [6-(3-cyclopropyl-1,2,4-triazol-1-yl)-2-azaspiro[3.3]heptan-2-yl]-[6-[(4-dimethylphosphoryl-2-methyl-pyrazol-3-yl)methyl]-2,6-diazaspiro[3.3]heptan-2-yl]methanone] as the molecule, how does the IC50 read?
**A.** The IC50 was 210 nM.

**Q.** `Cc1cc(C2CC2)nn1CC1CC2(C1)CN(C(=O)N1CC3(CC(n4cnc(C(F)(F)F)n4)C3)C1)C2` [Example 134, [6-[(3-cyclopropyl-5-methyl-pyrazol-1-yl)methyl]-2-azaspiro[3.3]heptan-2-yl]-[6-[3-(trifluoromethyl)-1,2,4-triazol-1-yl]-2-azaspiro[3.3]heptan-2-yl]methanone] was tested. Which IC50 did it give?
**A.** Its IC50 is 1.07 nM.

**Q.** How did the IC50 turn out when `O=C(N1CC2(CCN(Cc3cc(C(F)(F)F)sn3)CC2)C1)N1CC2(CC(n3cnc(C(F)(F)F)n3)C2)C1` [Example 46, [7-[[5-(trifluoromethyl)isothiazol-3-yl]methyl]-2,7-diazaspiro[3.5]nonan-2-yl]-[6-[3-(trifluoromethyl)-1,2,4-triazol-1-yl]-2-azaspiro[3.3]heptan-2-yl]methanone] was run?
**A.** Its IC50 is 11 nM.

**Q.** For `N=S(=O)(c1cnn(CC2CC3(C2)CN(C(=O)N2CC4(CC(n5cnc(C(F)(F)F)n5)C4)C2)C3)c1)C(F)(F)F` (centres unmarked) [Example 341, [6-[[4-(trifluoromethylsulfonimidoyl)pyrazol-1-yl]methyl]-2-azaspiro[3.3]heptan-2-yl]-[6-[3-(trifluoromethyl)-1,2,4-triazol-1-yl]-2-azaspiro[3.3]heptan-2-yl]methanone], which IC50 is on record?
**A.** The IC50 was 3.54 nM.

**Q.** `O=C(N1CC2(CC(Cn3cc(CC(F)(F)F)cn3)C2)C1)N1CC2(CC(n3cnc(C4(O)CC4)n3)C2)C1` [Example 144, [6-[3-(1-hydroxycyclopropyl)-1,2,4-triazol-1-yl]-2-azaspiro[3.3]heptan-2-yl]-[6-[[4-(2,2,2-trifluoroethyl)pyrazol-1-yl]methyl]-2-azaspiro[3.3]heptan-2-yl]methanone] was tested. Which IC50 did it give?
**A.** Its IC50 is 6.75 nM.

**Q.** For `Cn1nc(C2CC2)cc1CN1CC2(C1)CN(C(=O)N1CC3(CC(n4cnc(C5CC5)n4)C3)C1)C2` [Example 272, [6-[(5-cyclopropyl-2-methyl-pyrazol-3-yl)methyl]-2,6-diazaspiro[3.3]heptan-2-yl]-[6-(3-cyclopropyl-1,2,4-triazol-1-yl)-2-azaspiro[3.3]heptan-2-yl]methanone], which IC50 is on record?
**A.** The IC50 was 7 nM.

**Q.** For `O=C(N1CC2(CC(n3cnc(C4CC4)n3)C2)C1)N1CC2(CN(Cc3ccn(CC(F)(F)F)n3)C2)C1` [Example 100, [6-(3-cyclopropyl-1,2,4-triazol-1-yl)-2-azaspiro[3.3]heptan-2-yl]-[6-[[1-(2,2,2-trifluoroethyl)pyrazol-3-yl]methyl]-2,6-diazaspiro[3.3]heptan-2-yl]methanone], which IC50 is on record?
**A.** Its IC50 is 92.6 nM.

**Q.** Which IC50 does the source give for `Cc1nn(CC(F)(F)F)cc1CN1CC2(C1)CN(C(=O)N1CC3(CC(n4cnc(C5(O)CC5)n4)C3)C1)C2` [Example 111, [6-[3-(1-hydroxycyclopropyl)-1,2,4-triazol-1-yl]-2-azaspiro[3.3]heptan-2-yl]-[6-[[3-methyl-1-(2,2,2-trifluoroethyl)pyrazol-4-yl]methyl]-2,6-diazaspiro[3.3]heptan-2-yl]methanone] here?
**A.** The IC50 was 3900 nM.

**Q.** Which IC50 does the source give for `Cc1cc(C(F)F)n(CC2CC3(C2)CN(C(=O)N2CC4(CC(n5cnc(C6CC6)n5)C4)C2)C3)n1` [Example 92] here?
**A.** The IC50 was 0.21 nM.

**Q.** Which IC50 does the source give for `O=C(N1CC2(CC(n3cnc(C(F)(F)F)n3)C2)C1)N1CC2(CN(Cc3ncc(C(F)F)s3)C2)C1` [Example 187, [6-[[5-(difluoromethyl)thiazol-2-yl]methyl]-2,6-diazaspiro[3.3]heptan-2-yl]-[6-[3-(trifluoromethyl)-1,2,4-triazol-1-yl]-2-azaspiro[3.3]heptan-2-yl]methanone] here?
**A.** Its IC50 is 15.3 nM.

**Q.** How did the IC50 turn out when `O=C(N1CC2(CCC(Cc3nnc(C(F)(F)F)[nH]3)CC2)C1)N1CC2(CC(n3cnc(C(F)F)n3)C2)C1` [Example 315, [6-[3-(difluoromethyl)-1,2,4-triazol-1-yl]-2-azaspiro[3.3]heptan-2-yl]-[7-[[5-(trifluoromethyl)-4H-1,2,4-triazol-3-yl]methyl]-2-azaspiro[3.5]nonan-2-yl]methanone] was run?
**A.** Its IC50 is 113 nM.

**Q.** How did the IC50 turn out when `Cc1sc(CN2CC3(C2)CN(C(=O)N2CC4(CC(n5cnc(C6CC6)n5)C4)C2)C3)nc1C(F)(F)F` [Example 55, [6-(3-cyclopropyl-1,2,4-triazol-1-yl)-2-azaspiro[3.3]heptan-2-yl]-[6-[[5-methyl-4-(trifluoromethyl)thiazol-2-yl]methyl]-2,6-diazaspiro[3.3]heptan-2-yl]methanone] was run?
**A.** Its IC50 is 11.8 nM.

**Q.** With `O=C(N1CC2(CC(Cn3ccc(C4CC4)n3)C2)C1)N1CC2(CC(n3cnc(C4CC4)n3)C2)C1` [Example 143, [6-[(3-cyclopropylpyrazol-1-yl)methyl]-2-azaspiro[3.3]heptan-2-yl]-[6-(3-cyclopropyl-1,2,4-triazol-1-yl)-2-azaspiro[3.3]heptan-2-yl]methanone] as the molecule, how does the IC50 read?
**A.** The IC50 was 0.38 nM.

**Q.** How did the IC50 turn out when `CC(C)(C)c1c[nH]c(CN2CC3(C2)CN(C(=O)N2CC4(CC(n5cnc(C6CC6)n5)C4)C2)C3)n1` [Example 253, [6-[(4-tert-butyl-1H-imidazol-2-yl)methyl]-2,6-diazaspiro[3.3]heptan-2-yl]-[6-(3-cyclopropyl-1,2,4-triazol-1-yl)-2-azaspiro[3.3]heptan-2-yl]methanone] was run?
**A.** Its IC50 is 38.6 nM.

**Q.** For `O=C(N1CC2(CC(Cc3cc(C(F)(F)F)nn3CC(F)(F)F)C2)C1)N1CC2(CC(n3cnc(C4(O)CC4)n3)C2)C1` [Example 139], which IC50 is on record?
**A.** Its IC50 is 2.08 nM.

**Q.** How did the IC50 turn out when `O=C(N1CC2(CC(Cc3nc(CC(F)(F)F)n[nH]3)C2)C1)N1CC2(CC(n3cnc(C(F)(F)F)n3)C2)C1` [Example 204, [6-[[3-(2,2,2-trifluoroethyl)-1H-1,2,4-triazol-5-yl]methyl]-2-azaspiro[3.3]heptan-2-yl]-[6-[3-(trifluoromethyl)-1,2,4-triazol-1-yl]-2-azaspiro[3.3]heptan-2-yl]methanone] was run?
**A.** Its IC50 is 25.8 nM.
